Here are results for 21 compounds from patent US12187721B2, “Protein tyrosine phosphatase inhibitors” (Array BioPharma Inc., priority 2018, dated 2025).

Experiment [1] addresses T1, full-length SHP2 (His6-tagged SHP2(2-527)) (Homo sapiens, UniProt Q06124).
T1 construct: His6-tagged SHP2(2-527); His6; made in house; host or cells: E. coli
The experiment is described as follows: SHP2 Enzymatic Assay (fluorescence intensity kinetic assay, DiFMUP hydrolysis). Type of experiment: biochemical. The essentials: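 1 nM His6-SHP2(2-527), activated by 1 μM bis-phosphopeptide, hydrolysed 50 μM DiFMUP in 25 mM HEPES pH 7.4 with 1 mM DTT, 50 mM KCl and 2% DMSO. DiFMU fluorescence (Ex 355/Em 460 nm) was read kinetically for 15 min at ambient temperature.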

In experiment [2] the test system is ERK1/2 (Thr202/Tyr204) phosphorylation in KYSE520 cells. Put plainly: Cellular Phospho-p44/42 MAPK (Erk 1/2) (Thr202/Tyr204) Assay (In-Cell Western). Type of experiment: cell-based. The settings on record: Homo sapiens, KYSE-520, 1 h, read-out: Biological Example 2 IC50 (nM). As for the experimental part:
KYSE520 cells were obtained from DSMZ and grown in RPMI supplemented with 10% fetal bovine serum, pennicillin/streptomycin, 2 mM L-alanyl-L-glutamine dipeptide in 0.85% NaCl (Glutamax™), non-essential amino acids, and sodium pyruvate. Cells were plated in 96-well plates at 30,000 cells/well and allowed to attach overnight at 37° C./5% CO2. Cells were treated with compounds prepared as a 10-point, 1:3 dilution series (range: 20 μM-1 nM), with a final DMSO concentration of 0.5%. After 1 hour incubation, cells were fixed in 3.7% formaldehyde in Dulbecco's phosphate-buffered saline (“dPBS”) at room temperature for 20 minutes. Cells were then washed with dPBS and permeabilized in 100% MeOH at room temperature for 10 minutes. Following permeabilization, cells were washed in dPBS and incubated in LI-COR Blocking Buffer (LI-COR Biosciences, Cat #927-40000) for 1 hour or longer. Plates were then incubated with an antibody specific for the MEK-dependent ERK1/2 phosphorylation sites, threonine 202 and tyrosine 204 (Cell Signaling Technologies; Cat #9101), downstream of SHP2 in the MAP kinase signal transduction pathway, as well as GAPDH (Millipore; Cat #MAB374). pErk1/2 (Thr202/Tyr204) antibody was diluted in LI-COR blocking buffer containing 0.05% polysorbate-20 (Tween-20) at 1:250; GAPDH was diluted at 1:2,500. The plates were incubated overnight at 4° C. After washing with PBS/0.05% Tween-20, the cells were incubated with fluorescently-labeled secondary antibodies (Anti-rabbit-Alexa Flour680, Invitrogen Cat #A21109; Anti-mouse-IRDye800CW, Li-cor Bioscieces Cat #926-32210, both at 1:1000 dilution) for 1 hour. Cells were then washed, as above, and analyzed for fluorescence at both 680 nm and 800 nm wavelengths using the Aerius Infrared Imaging System (LI-COR Biosciences, Model 9250). Phosphorylated Erk1/2 (Thr202/Tyr204) signal was normalized to GAPDH signal for each well. IC50 values were calculated from the normalized values using a 4-parameter fit in BioAssay software. […] The reported IC50 in Table 2 may be from a single assay or the mean of multiple assays.

Setting [3] is: full-length SHP2 with 1 μM activating peptide, 50 μM DiFMUP, single assay or mean of multiple assays, read-out: Biological Example 1 IC50.

Counter-ions that a name gives are not always drawn. Like-named read-outs stand apart in the source and are kept apart here.

T1 sequence (Q06124 2-527): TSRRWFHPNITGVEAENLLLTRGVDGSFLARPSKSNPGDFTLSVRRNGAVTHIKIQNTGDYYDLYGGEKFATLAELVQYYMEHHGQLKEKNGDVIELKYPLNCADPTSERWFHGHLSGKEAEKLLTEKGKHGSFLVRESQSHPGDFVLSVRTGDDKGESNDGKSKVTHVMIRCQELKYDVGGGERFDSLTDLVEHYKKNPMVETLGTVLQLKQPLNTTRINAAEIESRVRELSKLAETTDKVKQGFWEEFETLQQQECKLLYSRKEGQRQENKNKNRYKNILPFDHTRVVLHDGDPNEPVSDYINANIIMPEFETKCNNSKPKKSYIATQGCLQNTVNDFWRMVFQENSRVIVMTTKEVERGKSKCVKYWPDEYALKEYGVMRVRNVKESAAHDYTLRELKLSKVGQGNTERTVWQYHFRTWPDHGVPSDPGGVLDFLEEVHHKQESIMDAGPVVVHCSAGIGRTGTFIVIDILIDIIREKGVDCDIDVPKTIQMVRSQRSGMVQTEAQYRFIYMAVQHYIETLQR

As for `Nc1nccc(Sc2ccc3nc(N4CCC5(CC4)CC(F)(F)C[C@H]5N)cnc3n2)c1Cl` (stereo in doubt) [Example 218, 8-(6-((2-amino-3-chloropyridin-4-yl)thio)pyrido[2,3-b]pyrazin-2-yl)-3,3-difluoro-8-azaspiro[4.5]decan-1-amine], the IC50 (usually the point on the concentration scale where inhibition reaches its midpoint) in experiment [1] was 47 nM; in experiment [2], 67 nM.

As for `CC1(N)CCN(c2cnc3nc(Sc4ccnc(N)c4Cl)ccc3n2)CC1` [Example 1, 4-((2-(4-amino-4-methylpiperidin-1-yl)pyrido[2,3-b]pyrazin-6-yl)thio)-3-chloropyridin-2-amine], the half-maximal inhibitory concentration (IC50) turned out to be 33 nM in experiment [1] (setting [3]) and 59 nM in experiment [2].

Regarding `C[C@@H]1OCC2(CCN(c3cnc4nc(Sc5cccc(Cl)c5Cl)ccc4n3)CC2)[C@@H]1N` [Example 4, (3S,4S)-8-(6-((2,3-dichlorophenyl)thio)pyrido[2,3-b]pyrazin-2-yl)-3-methyl-2-oxa-8-azaspiro[4,5]decan-4-amine], the half-maximal inhibitory concentration (IC50) was found to be 64 nM in experiment [1] and 550 nM in experiment [2].

Turning to `C[C@@H]1OCC2(CCN(c3cnc4nc(Sc5ccnc(N)c5Cl)ccc4n3)CC2)[C@@H]1N` [Example 13, (3S,4S)-8-(6-((2-amino-3-chloropyridin-4-yl)thio)pyrido[2,3-b]pyrazin-2-yl)-3-methyl-2-oxa-8-azaspiro[4,5]decan-4-amine], the values for the IC50 in experiment [1] and in experiment [2] were 84 nM and 79 nM, respectively.

As for `C[C@@H]1OCC2(CCN(c3cnc4nc(Sc5ccnc(N6CCCC6)c5Cl)ccc4n3)CC2)[C@@H]1N` [Example 25, (3S,4S)-8-(6-((3-chloro-2-(pyrrolidin-1-yl)pyridin-4-yl)thio)pyrido[2,3-b]pyrazin-2-yl)-3-methyl-2-oxa-8-azaspiro[4.5]decan-4-amine], the figures for the IC50 in experiment [1] and in experiment [2] were 100 nM and 650 nM, respectively.

Regarding `CNc1nccc(Sc2ccc3nc(N4CCC5(CC4)CO[C@@H](C)[C@H]5N)cnc3n2)c1Cl` [Example 33, (3S,4S)-8-(6-((3-chloro-2-(methylamino)pyridin-4-yl)thio)pyrido[2,3-b]pyrazin-2-yl)-3-methyl-2-oxa-8-azaspiro[4.5]decan-4-amine], the IC50 in experiment [1] amounted to 100 nM; in experiment [2] it was 80 nM.

As for `Nc1nccc(Sc2ccc3nc(N4CCC[C@@H](N)CC4)cnc3n2)c1Cl` [Example 41, (R)-1-(6-((2-amino-3-chloropyridin-4-yl)thio)pyrido[2,3-b]pyrazin-2-yl)azepan-4-amine], the IC50 was 56 nM in experiment [1] and 110 nM in experiment [2].

As for `Cc1nccc(Sc2ccc3nc(N4CCC(N)(CO)CC4)cnc3n2)c1Cl` [Example 57, (4-amino-1-(6-((3-chloro-2-methylpyridin-4-yl)thio)pyrido[2,3-b]pyrazin-2-yl)piperidin-4-yl)methanol], the concentration for half-maximal inhibition (IC50) came to 49 nM in experiment [1] and 91 nM in experiment [2].

Consider `Cc1nccc(Sc2ccc3nc(N4[C@H]5CC[C@H]4CC(N)C5)cnc3n2)c1Cl` (stereo partly drawn) [Example 67, (1R,3s,5S)-8-(6-((3-chloro-2-methylpyridin-4-yl)thio)pyrido[2,3-b]pyrazin-2-yl)-8-azabicyclo[3.2.1]octan-3-amine dihydrochloride], for which the 50% inhibitory concentration (IC50) was found to be 42 nM in experiment [1] and 48 nM in experiment [2].

Consider `C[C@@H]1OCC2(CCN(c3cnc4nc(Sc5ccnc(N6CCC[C@H]6CO)c5Cl)ccc4n3)CC2)[C@@H]1N` [Example 71, ((S)-1-(4-((2-((3S,4S)-4-amino-3-methyl-2-oxa-8-azaspiro[4.5]decan-8-yl)pyrido[2,3-b]pyrazin-6-yl)thio)-3-chloropyridin-2-yl)pyrrolidin-2-yl)methanol], for which the IC50 in experiment [1] was 120 nM; in experiment [2], 176 nM.

For the compound `Nc1nccc(Sc2ccc3nc(N4CCC5(CC4)Cc4ccccc4[C@H]5N)cnc3n2)c1Cl` [Example 76, (S)-1′-(6-((2-amino-3-chloropyridin-4-yl)thio)pyrido[2,3-b]pyrazin-2-yl)-1,3-dihydrospiro[indene-2,4′-piperidin]-1-amine], the half-maximal inhibitory concentration (IC50) in experiment [1] (setting [3]) amounted to 28 nM; in experiment [2] it was 8 nM.

As to `C[C@@H]1OCC2(CCN(c3cnc4nc(Sc5ccnc(N6CCC(O)CC6)c5Cl)ccc4n3)CC2)[C@@H]1N` [Example 78, 1-(4-((2-((3S,4S)-4-amino-3-methyl-2-oxa-8-azaspiro[4.5]decan-8-yl)pyrido[2,3-b]pyrazin-6-yl)thio)-3-chloropyridin-2-yl)piperidin-4-ol], the IC50 in experiment [1] was found to be 331 nM; in experiment [2] it was 87 nM.

On to `CN[C@H]1CCCN(c2cnc3nc(Sc4ccnc(N)c4Cl)ccc3n2)CC1` [Example 91, (S)-1-(6-((2-amino-3-chloropyridin-4-yl)thio)pyrido[2,3-b]pyrazin-2-yl)-N-methylazepan-4-amine], for which the IC50 was 106 nM in experiment [1] and 317 nM in experiment [2].

For the compound `N[C@@H]1c2cccnc2CC12CCN(c1cnc3nc(Sc4ccnc(NCCO)c4Cl)ccc3n1)CC2` [Example 108, (S)-2-((4-((2-(5-amino-5,7-dihydrospiro[cyclopenta[b]pyridine-6,4′-piperidin]-1′-yl)pyrido[2,3-b]pyrazin-6-yl)thio)-3-chloropyridin-2-yl)amino)ethan-1-ol], the half-maximal inhibitory concentration (IC50) in experiment [1] stood at 84 nM; in experiment [2] it was 11 nM.

On to `Nc1nccc(Sc2ccc3nc(N4CCC5(CC4)Cc4ncc(F)cc4[C@H]5N)cnc3n2)c1Cl` [Example 117, (S)-1′-(6-((2-amino-3-chloropyridin-4-yl)thio)pyrido[2,3-b]pyrazin-2-yl)-3-fluoro-5,7-dihydrospiro[cyclopenta[b]pyridine-6,4′-piperidin]-5-amine], for which the results for the 50% inhibitory concentration (IC50) in experiment [1] (setting [3]) and in experiment [2] were 50 nM and 6 nM, respectively.

Consider `Nc1nccc(Sc2ccc3nc(N4CCC5(CC4)Cc4ncccc4[C@H]5N)cnc3n2)c1Cl` [Example 125, (S)-1′-(6-((2-amino-3-chloropyridin-4-yl)thio)pyrido[2,3-b]pyrazin-2-yl)-5,7-dihydrospiro[cyclopenta[b]pyridine-6,4′-piperidin]-5-amine], for which the half-maximal inhibitory concentration (IC50) in experiment [1] (setting [3]) is 38 nM; in experiment [2] it was 5 nM.

Regarding `CC(C)(C#N)CNc1nccc(Sc2ccc3nc(N4CCC(C)(N)CC4)cnc3n2)c1Cl` [Example 134, 3-((4-((2-(4-amino-4-methylpiperidin-1-yl)pyrido[2,3-b]pyrazin-6-yl)thio)-3-chloropyridin-2-yl)amino)-2,2-dimethylpropanenitrile], the results for the half-maximal inhibitory concentration (IC50) in experiment [1] and in experiment [2] were 238 nM and 810 nM, respectively.

For the compound `N[C@@H]1c2ccccc2CC12CCN(c1cnc3nc(Sc4ccnc5c4C(F)(F)C(=O)N5)ccc3n1)CC2` [Example 142, (S)-4-((2-(1-amino-1,3-dihydrospiro[indene-2,4′-piperidin]-1′-yl)pyrido[2,3-b]pyrazin-6-yl)thio)-3,3-difluoro-1,3-dihydro-2H-pyrrolo[2,3-b]pyridin-2-one], the figures for the IC50 in experiment [1] and in experiment [2] were 26 nM and 4 nM, respectively.

With `N[C@@H]1c2cccnc2CC12CCN(c1cnc3nc(Sc4cccnc4C(F)(F)F)ccc3n1)CC2` [Example 163, (S)-1′-(6-((2-(trifluoromethyl)pyridin-3-yl)thio)pyrido[2,3-b]pyrazin-2-yl)-5,7-dihydrospiro[cyclopenta[b]pyridine-6,4′-piperidin]-5-amine], the IC50 in experiment [1] came to 52 nM; in experiment [2] it was 30 nM.

For the compound `Cc1ccc2c(c1)[C@@H](N)C1(CCN(c3cnc4nc(Sc5ccnc(N)c5Cl)ccc4n3)CC1)C2` [Example 178, (S)-1′-(6-((2-amino-3-chloropyridin-4-yl)thio)pyrido[2,3-b]pyrazin-2-yl)-6-methyl-1,3-dihydrospiro[indene-2,4′-piperidin]-1-amine], the values for the IC50 in experiment [1] (setting [3]) and in experiment [2] were 57 nM and 17 nM, respectively.

Consider `C[C@@H]1OCC2(CCN(c3cnc4nc(Sc5ccnc(NCCO)c5Cl)ccc4n3)CC2)[C@@H]1N` [Example 185, 2-((4-((2-((3S,4S)-4-amino-3-methyl-2-oxa-8-azaspiro[4.5]decan-8-yl)pyrido[2,3-b]pyrazin-6-yl)thio)-3-chloropyridin-2-yl)amino)ethan-1-ol], for which the IC50 in experiment [1] was 408 nM; in experiment [2], 166 nM.
